# Assay results taken from patent US20060247156A1, “Use of neuropeptides for ligament, cartilage, and bone healing” (priority 2004, published 2006).
# “And” between values parts separate entries of the source, which are not always exact repeats. Identical values can stand only once. “Also recorded” adds a separate entry of the source.
# Experiments:
# [1] = tested on: MCL; test: MCL organ culture with capsaicin, mechanical testing; set-up: species or system rat
# [2] = tested on: intact and healing MCLs; test: Intact and healing MCL after in vivo capsaicin: mechanical testing, healing, histomorphology; set-up: species or system rat
# Description: In Group 2, control rats (n=6) were injected with an equal volume of 0.9% saline. […] These rats were also divided into two groups. […] After 3 days of treatment, both groups underwent a surgical rupture of one MCL. Contralateral MCLs were used as sham controls. All rats were maintained in their normal cage environment for 10 days. Then, they were sacrificed as noted above. Femur-MCL-tibia (FMT) complexes were then harvested and tested as above.
# Injections were made into a site between the scapulae. […] Bupivicaine was also administered subcutaneously at the site of the capsaicin injection. […] Into Group 2 (n=6 animals) and Group 4 (n=9 animals), a similar volume of sterile saline was injected via the same method. All other medications were given as in the treated groups. There were no signs of infection, discomfort, or unusual behavior in the treated rats. […] Contralateral legs were used as sham controls.
# Mechanical Testing: Mechanical testing was performed as described in the previous examples. Briefly, animal hind limbs from all groups (n=4 Group 1; n=4 Group 2; n=4 Group 3; n=4 Group 4) were disarticulated at the hip joint and stored at −80° C. until testing. On the day of testing, MCLs including intact femoral and tibial bone sections were excised for ex vivo testing. Ligament thickness and width was measured optically, and MCL area was estimated with elliptical geometry. For strain measurements, optical markers were placed onto the ligament tissue near the insertion sites. A small preload of 0.1N was applied to the ligaments in order to obtain a uniform starting point. The ligaments were then preconditioned to 1% strain for 10 cycles. After preconditioning, ligaments were pulled to failure at a rate of ˜10% per second. Tissue displacement was obtained using video dimensional analysis using equations (1) and (2) infra. The mechanical properties that were examined in this study were maximum force, ultimate stress, strain at failure, elastic modulus, and area. Statistical analysis was performed using an unpaired t-test (p=0.05) to analyze differences between the control and treatment group.
# (§1) Ligaments were immediately fixed in formalin fixative for three days at room temperature. Specimens were embedded in paraffin, sectioned (6 μm), mounted on slides, and stained with hematoxylin and eosin (H&E).
# [3] = tested on: MCL neuropeptide concentration (SP, CGRP, NPY, VIP); test: Neuropeptides in MCL after capsaicin (RIA, immunofluorescence); type: in vivo, rat
# Description: Injections were made into a site between the scapulae. […] Into Group 2 (n=6 animals) and Group 4 (n=9 animals), a similar volume of sterile saline was injected via the same method. All other medications were given as in the treated groups. […] Contralateral legs were used as sham controls.
# Neuropeptide Radioimmunoassay: Four MCLs from all groups were used for quantification of neuropeptide concentrations via RIA. MCLs were homogenized using a mortar and pestle.
# Each ligament was then incubated in two […] appropriately tagged (AMCA or Rhodamine; Chemicon, Temecula, Calif.) secondary antibodies.
# [4] = tested on: MCL; settings: cited from earlier work
# [5] = tested on: healing MCL; test: Local neuropeptide delivery to normally innervated healing MCL: mechanical testing, histomorphology; type: in vivo, rat
# Description: Animal Model and Surgery: Forty female Wistar rats (200-250 g) were divided into five groups.
# All rats underwent bilateral MCL rupture. Neuropeptides were then delivered ruptured MCLs unilaterally. Neuropeptide infused mini-osmotic pumps (Alzet Corp.) were implanted subcutaneously into the back of each rat. A small catheter running from the pump was run to an intramuscular space above the MCL and was secured.
# Mechanical Testing: Mechanical testing was performed as described in Chapter 2. Briefly, animal hind limbs from all groups (n=5 for all groups) were disarticulated at the hip joint and stored at −80° C. until testing. On the day of testing, MCLs including intact femoral and tibial bone sections were excised for ex vivo testing. Ligament thickness and width was measured optically, and MCL area was estimated with elliptical geometry. For strain measurements, optical markers were placed onto the ligament tissue near the insertion sites. A small preload of 0.1N was applied to the ligaments in order to obtain a uniform starting point. The ligaments were then preconditioned to 1% strain for 10 cycles. After preconditioning, ligaments were pulled to failure at a rate of 10% per second.
# Tissue displacement was obtained using video dimensional analysis using equations (1) and (2) supra. The mechanical properties that were examined in this study were maximum force, ultimate stress, strain at failure, elastic modulus, and area. Statistical analysis was performed using paired ttests to compare each treated MCL to its contralateral control (alpha=0.05).
# as §1
# [6] = tested on: bovine articular chondrocytes; test: Bovine chondrocytes proliferation assay (CellTiter 96 AQueous One); type: cell-based; settings: CGRP 100 pg/ml, NPY 50 ng/ml, SP 500 pg/ml, VIP 1 ng/ml
# Description: (§2) Cartilage chunks were then digested at 37° C. in DMEM containing 0.05% hyaluronidase for 30 minutes, followed by 0.05% collagenase digestion overnight. The digests were filtered through 40-micron nylon mesh and centrifuged at 600×g for 20 minutes. The cell pellets were then resuspended in DMEM and counted using a hemacytometer.
# (§3) Cells were plated at 1×10^5 cells/well in 12-well plates (n=9) for proteoglycan assays and at 2×10^4 cells/well in 96-well plates (n=16) for proliferation assays. The culture volumes were 1 ml/well in 12-well plates and 100 μl/well in 96-well plates.
# (§4) The plates were incubated at 37° C. in a humidified CO2 incubator for 3 days to allow the cells to recover from the harvesting procedure.
# (§5) On Day 3 of treatment, 20 μl of CellTiter 96® AQueous One Solution Cell Proliferation Assay (Promega Corporation, Madison, Wis.) was added to each well of the 96-well cultures for 60 minutes, and cells in the 12-well plates were digested with 0.125 units of papain/well overnight. After the 60-minute incubation, the absorbance of the color generated by the cells in the 96-well plates was measured at wavelength 490 nm.
# [7] = tested on: bovine articular chondrocytes; test: Bovine chondrocytes glycosaminoglycan assay (DMMB); type: cell-based; settings: NPY 50 ng/ml; Day 3 of treatment; individual wells
# Description: as §2, §3, §4, §5
# Following papain digestion of the cultures in 12-well plates, the amount of glycosaminoglycan (representative of proteoglycans) in each well was measured using the dimethylmethylene blue (DMMB) dye-binding assay. The results were statistically analyzed and plotted.
# [8] = tested on: ruptured MCL of a surgical sympathectomy (SS) rat; test: Local neuropeptide delivery to ruptured MCL of surgical sympathectomy (SS) rats: mechanical testing, histomorphology; type: in vivo
# Excerpt: Surgical Procedure: Thirteen female Wistar rats (306 g to 339 g) were divided into two groups: surgical sympathectomy (SS) or sham control. All rats were anesthetized with isofluorane as described in Example 1. A transperitoneal approach was used. The lower abdomen was shaved and prepared for surgery. A skin incision approximately 25 mm long was made. Fascia and abdominal muscle were incised. Abdominal organs were displaced. With the aid of a dissecting microscope, fascia surrounding the deep muscle tissue was separated (with minimal disruption to the muscle tissue) to expose the post-ganglionic sympathetic nerves. The L1-4 nerves were isolated and transected (with removal of a 5 mm segment of the nerves) in the surgical sympathectomy group only. In both groups, the deep muscle tissue was returned to its initial position and abdominal organs were replaced. Abdominal muscles and skin were closed in two layers with a 3-0 or 4-0 continuous dexon suture. Rats from each group (n=4 SS; n=3 controls) then underwent a complete surgical rupture of the MCL to one knee. The contra-lateral knee underwent sham surgery. […] Two weeks post-surgery, rats were sacrificed using an overdose of pentobarbitone (150 mg/kg).
# Local delivery of NPs and NP inhibitors is important to identify the specific roles of individual NPs on healing tissues. An animal model for the local delivery of NPs has been developed and is presented in this Example. Briefly, NP infused mini-osmotic pumps were implanted subcutaneously into the back of rats. A small catheter running from the pump to an intramuscular space above the MCL was secured to the rat.
# To test whether autonomic NPs improve healing in SS-ruptured MCLs, three female Wistar rats (193 g to 204 g) were given VIP locally to the MCL. Vasoactive intestinal peptide (75 pg/μl) was infused into a mini-osmotic pump and was delivered to a ruptured MCL of a surgical sympathectomy (SS) rat (see surgical procedure above). Within minutes of surgical intervention, all rats recovered and had normal movement and behavior (grooming, feeding, etc.). […] The results are presented graphically in FIG. 6.
# Animal Model and Surgery: Thirty-seven female Wistar rats (199-298 g) were divided into five groups. […] Rats that were designated to receive SP or CGRP underwent bilateral femoral nerve transection (see previous examples). Rats that were designated to receive NPY, VIP, or a combination of NPY and VIP underwent bilateral surgical sympathectomy. Following surgical nerve transection, each rat also underwent bilateral MCL rupture. Neuropeptides were then delivered ruptured MCLs unilaterally. Neuropeptide infused mini-osmotic pumps (Alzet Corp.) were implanted subcutaneously into the back of each rat. A small catheter running from the pump was run to an intramuscular space above the MCL and was secured. To ensure that neuropeptides are delivered directly to the MCL, rhodamine labeled SP was delivered via a catheter to the MCL (n=2 rats).
# Within minutes of surgical intervention, all rats recovered and had normal movement and behavior (grooming, feeding, etc.). To test whether autonomic NPs improve healing in SS ruptured MCLs, seven rats were given VIP, seven rats were given NPY, and seven rats were given a combination of VIP and NPY. […]
# Mechanical Testing: Mechanical testing was performed as described in the preceding examples. Briefly, animal hind limbs from all groups (n=4 for all groups) were disarticulated at the hip joint and stored at −80° C. until testing. On the day of testing, MCLs including intact femoral and tibial bone sections were excised for ex vivo testing. Ligament thickness and width was measured optically, and MCL area was estimated with elliptical geometry. For strain measurements, optical markers were placed onto the ligament tissue near the insertion sites. […]
# [9] = tested on: Bovine nucleus pulposus cells; test: Bovine nucleus pulposus (intervertebral disc) cell proliferation; type: cell-based; settings: CGRP 10 ng/ml, NPY (mcg/ml, SP 5 mcg/ml); day 1, day 2, day 3
# Description: Bovine calf spines and femoral condyles were obtained from a slaughterhouse and freshly transported to the laboratory. Nucleus pulposus tissue was carefully dissected, avoiding annular and endplate cartilage tissues, from each disc. Articular cartilage from femoral condyles was dissected in the same manner. […] Cells were harvested by overnight digestion with hyaluronidase and collagenase, followed by filtration. Cells were plated at a density of 1×10^5 cells/ml and incubated at 37° C. in 5% CO2 and 95% air in the presence of each neuropeptide or media only (control). At various time points in growth, cells were collected for proliferation and glycosaminoglycan (GAG) production assays. Varying concentrations of NPs were examined.
# Well established colorimetric and luminescent assays (CellTiter 96® AQueous Non-radioactive Cell Proliferation and CellTiter-Glo® Luminescent Cell Viability Assays, Promega, Madison, Wis.) were used to quantify the effect of each NP on cell proliferation. In addition, corresponding cell cultures during growth were digested with papain to release glycosaminoglycans (GAGs). Dimethyl methylene blue (DMMB) colorimetric assays were used to quantify the amount of GAGs in each culture.
# Multiple samples for test and control groups were performed simultaneously. Statistical analyses using one way analysis of variance (ANOVA) with large degrees of freedom (n=12 for GAG assays; n=24 for proliferation assays) were performed to establish the significance of differences between test groups and control groups for each day of growth in culture.
# The effect of neuropeptides on intervertebral disc cell proliferation was examined in order to elucidate further the pathophysiology of degenerative disc disease. Bovine nucleus pulposus cells were incubated with the same neuropeptides.
# [10] = second study, Group 3: capsaicin 50 mg/kg/day x3 days, ruptured MCL, healing
# [11] = Group 3: ruptured MCL, capsaicin 50 mg/kg/day for three days, two weeks of healing
# [12] = Example 7: normally innervated rats, bilateral MCL rupture, mini-osmotic pump (SP 75, CGRP 10, NPY 65, VIP 100 pg/100 μl), two weeks of healing
molecule,measurement,setting,value
COc1cc(CNC(=O)CCCC/C=C/C(C)C)ccc1O [capsaicin],ultimate stress,[1]; organ culture 10 days with capsaicin in media,66.0±4.7 MPa
same,ultimate force,[1]; organ culture with capsaicin-supplemented media,no changes
same,histomorphology (H&E) of healing MCL,"[2]; capsaicin treated, two weeks of healing",hypercellular and disorganized
same,healing of MCL and skin wounds (in words),[2]; capsaicin-treated rats with MCL rupture,one MCL failed to heal; also recorded: healed poorly
same,ultimate stress of the ruptured ligament,"[2]; first study: capsaicin 50 mg/kg, MCL rupture after 3 days of treatment, n=3",4.6 MPa
same,ultimate stress of intact MCLs,"[2]; first study: capsaicin 50 mg/kg, intact MCL, 10 days",substantially reduced
same,"abnormalities in movement, body weight, or behavior",[2]; following initial recovery from capsaicin injection,No abnormalities
same,"failure force, ultimate stress, failure strain, area, and elastic modulus of intact MCL","[2]; second study, Group 1 vs Group 2, intact MCL",not significantly changed
same,failure force,[2]; [10],4.5±2.7 N
same,ultimate stress,[2]; [10],2.7±1.9 MPa
same,CGRP concentration in MCL (RIA),"[3]; Group 1: intact MCL, capsaicin 50 mg/kg/day s.c. for three days, 10 days after last injection",0.04 pmol/g
same,CGRP concentration in MCL (RIA),[3]; [11],0.042 pmol/g
same,NPY concentration in MCL (RIA),[3]; [11],3.09 pmol/g
same,SP concentration in MCL (RIA),[3]; [11],0.09 pmol/g
same,VIP concentration in MCL (RIA),[3]; [11],1.07 pmol/g
insulin-like growth factor-1,healed strength relative to intact ligament,"[4]; Provenzano et al., following 30 days of delivery",66%
neuropeptide Y [NPY],histomorphology (H&E) of healing MCL,"[5]; Example 7, two weeks of healing",less of an effect on tissue alignment
same,failure force,[5]; [12],7.7±1.1 N
same,ultimate stress,[5]; [12],5.6±2.2 MPa
same,proliferation of articular chondrocytes compared to controls (in words),[6],stimulate proliferation
same,Glycosaminoglycan Assay,[7],7.783 μg/dish and 9.327 μg/dish and 6.2383 μg/dish and 8.055 μg/dish and 7.964 μg/dish and 5.148 μg/dish and 5.784 μg/dish and 7.874 μg/dish and 8.328 μg/dish
same,failure force,"[8]; Example 6: SS rats, bilateral MCL rupture, mini-osmotic pump (NPY 65 pg/100 μl; VIP 100 pg/100 μl; or both), two weeks of healing",12.2±0.9 N
same,histomorphology (H&E) of healing MCL,"[8]; SS rats, VIP or NPY, two weeks",more aligned
same,healing response of MCLs relative to intact controls,"[8]; neuropathic ruptured MCL, two weeks of healing",70%
same,disc cell proliferation compared to controls,[9],stimulate disc cell proliferation
platelet-derived growth factor [PDGF],healed MCL strength relative to intact ligament strength,"[4]; Woo et al., after 6 weeks of healing",50%
